Source: US12298318B2, “Targeting ligands for tau pathology” (Texas Children's Hospital, priority 2019, dated 2025)

What was measured:
[1] = test system: hyperphosphorylative SH-SY5Y cells; assay: Binding studies with Cy5-labeled aptamer (cell staining); assay type: cell-based, human; conditions: 50 nM, 2 h at 4° C. (FIG. 2C)
Text: Negative selection eliminated certain sequences that were not specific to the hyperphosphorylative state or have a propensity for hepatocyte uptake. However, the relative abundance of key sequences increased steadily throughout the whole process. The 23 most abundant sequences at round 26 were identified, and their abundance throughout the SELEX process as calculated using AptaAligner is shown in FIG. 2B. The sequence Tau_1 (SEQ ID NO: 5; DONGYBM) was the most prevalent at cycle 26, representing 20.6% of the thioaptamers present. A single base difference from this sequence, Tau_3 (SEQ ID NO: 6; MUSQD), was the second most represented sequence (10.4%). […] The secondary structure of the aptamers Tau_1 (SEQ ID NO: 5; DONGYBM) and Tau_3 (SEQ ID NO: 6; MUSQD) calculated using mfold is shown in FIG. 2D. The sequences present at the final round were grouped by hierarchical clustering and sequence homology using the multiple sequence alignment code MAFFT showing five distinct families, which were also presented as a cladogram (using the Clustal Omega) showing the common ancestry between these five aptamers families (FIG. 2E).
Immunocytochemistry. […]

[2] = test system: hyperphosphorylated SH-SY5Y cells; assay: Aptamer-based pulldown and mass spectrometry target identification; design: species or system human; conditions: pulldown / immunoprecipitation, mass-spectrometry
Experimental: To characterize the binding target of the aptamers, an aptamer-based pulldown assay was performed, along with aptamer-based immunoprecipitation, followed by mass-spectrometry. The assay was performed for both Tau_1 (SEQ ID NO: 5; DONGYBM) and Tau_3 (SEQ ID NO: 6; MUSQD) aptamers. […] The surface expression of Keratin 6a, 6b was similar on wild-type and transgenic tissue sections, whereas the VIM expression was higher in the Tg mice (FIG. 6C).
Target Identification. The protein targets of Tau_1 (SEQ ID NO: 5; DONGYBM), Tau_3 (SEQ ID NO: 6; MUSQD), Tau-4, and Tau-5 were identified by affinity-pull down using the selected aptamers as the capturing reagent followed by mass-spectroscopy. A scrambled DNA sequence, R2, was used as a control. The hyperphosphorylated SH-SY5Y cells, at 90-95% confluence, were washed with cold PBS buffer and incubated with biotinylated selected aptamers with […] each at 4° C. in PBS, respectively. After 2 hours of gentle agitation, SH-SY5Y cells were cross-linked with 1% formaldehyde for 10 min at rt. The formaldehyde cross-linking was quenched with glycine. Cells were scraped from the plate, washed, lysed with lysing buffer (Thermofisher Scientific, #87787), and treated with protease inhibitor mixture. The lysates were freeze-thawed for 30 min on ice and cleared by centrifuging at 10,000×g for 2 min at 4° C. […] Each sample was analyzed in triplicate. […]

ReN-VM cells = assay: Saturation binding of Cy5-labeled aptamer, apparent Kd, ReN-VM cells; conditions: read-out: apparent equilibrium dissociation constant (Kdapp)
Experimental: (§1) The apparent equilibrium dissociation constants (Kdapp) were measured by serial dilution of aptamer solutions with target hyperphosphorylated, non-target differentiated, and undifferentiated SH-SY5Y cells. The affinity of these aptamers was also tested with another immortal neural progenitor stem cell line, ReN-VM, in hyperphosphorylative and non-hyperphosphorylative conditions. The Kdapp for Tau_1 (SEQ ID NO: 5; DONGYBM) and Tau_3 (SEQ ID NO: 6; MUSQD) with hyperphosphorylated SH SY5Y cells is 0.167±0.015 nM and 0.194±0.032 nM; and for the ReN-VM cells 318.15±46.2 nM and 234.24±38.6 nM, respectively (FIG. 3).
(§2) Hyperphosphorylation. Hyperphosphorylation was induced in SH-SY5Y cells by addition of 30 nM OA (Sigma Aldrich, St. Louis, MO, #459620) in growth medium with 30 μM RA for 24 h. ReNcell VM were hyperphosphorylated using 100 nM QA (SigmaAldrich, St. Louis, MO, #P63204) in culture media for 24 h.
(§3) Aptamer binding studies. Aptamer binding studies were conducted with undifferentiated, differentiated, and hyperphosphorylated SH SY5Y and ReN cell VM grown in 96-wells seeded at 10000 per well. […]

[3] = test system: OA treated differentiated SH-SY5Y cells; assay: Cell-SELEX sequence abundance by next-generation sequencing; design: species or system human; conditions: SELEX cycle 26
Experimental: Aptamer screening was performed using the cell-SELEX approach on differentiated SH-SY5Y cells in a hyperphosphorylative state. FIGS. 2A-2E describe how cell-SELEX was used to identify biomarkers of onset the of AD. OA treated differentiated SH-SY5Y cells were used as a surrogate for hyperphosphorylative neurons to screen DNA aptamers that specifically recognize the differences between the surfaces of treated and untreated cells, using the cell-SELEX methodology modified to capture membrane binding aptamers. A total of 26 cell SELEX cycles were performed. […]
Negative selection eliminated certain sequences that were not specific to the hyperphosphorylative state or have a propensity for hepatocyte uptake. […] The 23 most abundant sequences at round 26 were identified, and their abundance throughout the SELEX process as calculated using AptaAligner is shown in FIG. 2B. […] The secondary structure of the aptamers Tau_1 (SEQ ID NO: 5; DONGYBM) and Tau_3 (SEQ ID NO: 6; MUSQD) calculated using mfold is shown in FIG. 2D. […]
Next-Generation Sequencing (NGS). […] Equimolar quantities of the recovered TA sequences over the range were pooled together and sequenced by Next-Gen DNA sequencing using Ion318 chip (ThermoFisher, Waltham, MA). […]

[4] = test system: hyperphosphorylated SH SY5Y cells; assay: Saturation binding of Cy5-labeled aptamer, apparent Kd, SH-SY5Y cells; design: species or system human; conditions: read-out: apparent equilibrium dissociation constant (Kdapp)
Experimental: as §1, §2, §3

MAO-B enzyme = molecular target: T1, MAO-B enzyme (Homo sapiens, UniProt P27338); conditions: brain; cited from earlier work
T1 sequence (P27338 1-520): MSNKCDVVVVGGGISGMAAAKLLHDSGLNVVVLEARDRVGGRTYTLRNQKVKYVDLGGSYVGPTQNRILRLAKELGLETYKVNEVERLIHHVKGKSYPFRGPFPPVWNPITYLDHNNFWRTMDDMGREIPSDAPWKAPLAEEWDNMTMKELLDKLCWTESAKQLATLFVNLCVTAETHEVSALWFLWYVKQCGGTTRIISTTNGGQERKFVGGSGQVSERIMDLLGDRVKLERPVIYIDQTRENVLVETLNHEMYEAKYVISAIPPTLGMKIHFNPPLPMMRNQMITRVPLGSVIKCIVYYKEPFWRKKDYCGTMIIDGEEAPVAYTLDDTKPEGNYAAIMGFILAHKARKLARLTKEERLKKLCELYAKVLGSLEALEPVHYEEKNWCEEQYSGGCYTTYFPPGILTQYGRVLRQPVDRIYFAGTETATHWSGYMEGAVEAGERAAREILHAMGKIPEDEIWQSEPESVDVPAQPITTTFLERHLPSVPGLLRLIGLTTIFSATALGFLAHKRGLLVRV

tetrameric VIM = tetrameric VIM (Homo sapiens, UniProt P08670); conditions: cited from earlier work
tetrameric VIM, sequence (P08670 whole entry): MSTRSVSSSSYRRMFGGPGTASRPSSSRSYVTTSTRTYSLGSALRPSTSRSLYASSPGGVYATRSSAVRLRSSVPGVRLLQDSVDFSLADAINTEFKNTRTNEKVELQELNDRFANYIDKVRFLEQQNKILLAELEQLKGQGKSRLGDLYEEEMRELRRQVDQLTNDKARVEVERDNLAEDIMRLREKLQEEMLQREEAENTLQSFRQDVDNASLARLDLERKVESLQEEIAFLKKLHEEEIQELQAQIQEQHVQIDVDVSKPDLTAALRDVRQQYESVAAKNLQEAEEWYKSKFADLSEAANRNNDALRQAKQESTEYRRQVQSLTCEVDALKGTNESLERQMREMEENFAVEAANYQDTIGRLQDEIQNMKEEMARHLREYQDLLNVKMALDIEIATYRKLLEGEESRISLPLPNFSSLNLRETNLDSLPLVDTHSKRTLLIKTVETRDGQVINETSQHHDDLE

Compound	binding of Cy5-labeled aptamer to cells [1]	possible binding targets by abundance score ranking [2]	Kd (ReN-VM cells)	fraction of the thioaptamers present (abundance) [3]	Kd [4]	off-target binding (MAO-B enzyme)	binding site on vimentin (tetrameric VIM)
Tau_1: DNA thioaptamer CCCCCCACGGTCTCCGCTCCACAAGTTCAC (DNA, backbone and methylation of C not given here; further chemistry not fully specified)	elevated binding levels with the hyperphosphorylative cells	keratin 6a, Keratin 6b, and VIM	318 ± 46.2 nM	20.6%	0.167 ± 0.015 nM		
Fc1ccc(-c2ccc3c(c2)[nH]c2ccncc23)cn1 [Flortaucipir]						binds the MAO-B enzyme in the brain	
Tau_3: DNA thioaptamer CCCCCCACGGTCTCCGCTCCACAAGTCCAC	elevated binding levels with the hyperphosphorylative cells	keratin 6a, Keratin 6b, and VIM	234 ± 38.6 nM	10.4%	0.194 ± 0.032 nM		
CC1=C(CO)C(=O)O[C@@H]([C@@H](C)[C@H]2CC[C@H]3[C@@H]4C[C@H]5O[C@]56[C@@H](O)C=CC(=O)[C@]6(C)[C@H]4CC[C@]23C)C1 [Withaferin A]							binds the conserved cysteine 382 residue on tetrameric VIM
